Data set [1] is described as follows: In vitro cytotoxicity assay (MTT cell viability) in HepG2 cells. It counts as cell-based, human. The settings on record: human. The procedure, abridged:
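CC50 was derived by 4-parameter fit of viability relative to vehicle controls, measured as MTT formazan absorbance at 492 nm after 3–4 h of reagent and DMSO solubilization. Before that, HepG2 cells seeded overnight at 20,000/well were incubated 7 days at 37°C with compound from 30 μM down to 1.0 nM in half-log steps.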

Another data set relates to HBV. Nature of the data set: In vitro antiviral assay: anti-HBV replication in HepAD38 cells (extracellular HBV DNA by QPCR). It counts as cell-based, hepatitis B virus (genotype D, serotype ayw). The conditions noted are these: Hepatitis B virus, HePAD38, 168 h, 7 days incubation, extracellular HBV DNA by QPCR, read-out: Anti-HBV EC50. The procedure, abridged: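 HepG2-derived HepAD38 cells (HBV genotype D, ayw, tet-repressible CMV) induced by tetracycline withdrawal, treated 7 days at 37 °C with compound (1 μM to 10 pM, 10-fold steps). Supernatant HBV DNA quantified by QPCR against standard curve, percent of DMSO control; EC50 by 4-parameter fit; entecavir positive control.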

The source of these data is patent publication US20230107941A1, “HEPATITIS B CAPSID ASSEMBLY MODULATORS” (Venatorx Pharmaceuticals, Inc., priority 2019, published 2023).

In data set [1], `Cc1cc(NC(=O)c2c(C)c(C(=O)C(=O)N[C@H]3CC[C@@H](S(C)(=O)=O)CC3)n(C)c2C)ccc1F` [Example 1, N-(4-fluoro-3-methylphenyl)-1,2,4-trimethyl-5-(2-(((1s,4s)-4-(methylsulfonyl)cyclohexyl)amino)-2-oxoacetyl)-1H-pyrrole-3-carboxamide] displayed a CC50 at 7 days above 30000 nM. Moreover, the EC50 with HBV is below 50 nM.
On the same counts, the results for `Cc1cc(NC(=O)c2c(C)c(C(=O)C(=O)N[C@]3(C)CC[C@@H](O)CC3)n(C)c2C)cc(C)c1F` [Example 168, N-(4-fluoro-3,5-dimethylphenyl)-5-(2-(((1r,4r)-4-hydroxy-1-methylcyclohexyl)amino)-2-oxoacetyl)-1,2,4-trimethyl-1H-pyrrole-3-carboxamide] are above 30000 nM and below 50 nM.
In turn, `Cc1cc(NC(=O)c2c(C)c(C(=O)C(=O)NC3(CO)CCN(C(=O)c4ccnn4C)CC3)n(C)c2C)ccc1F` [Example 76, N-(4-fluoro-3-methylphenyl)-5-(2-((4-(hydroxymethyl)-1-(1-methyl-1H-pyrazole-5-carbonyl)piperidin-4-yl)amino)-2-oxoacetyl)-1,2,4-trimethyl-1H-pyrrole-3-carboxamide] displayed a cytotoxic concentration (CC50) at 7 days in data set [1] above 30000 nM. Further, the 50% effective concentration (EC50) with HBV is below 50 nM.
For the compound `Cc1cc(NC(=O)c2c(C)c(C(=O)C(=O)N[C@]3(C)C[C@H](O)C3)n(C)c2-c2ccccn2)ccc1F` [Example 155, N-(4-fluoro-3-methylphenyl)-5-(2-(((1s,3s)-3-hydroxy-1-methylcyclobutyl)amino)-2-oxoacetyl)-1,4-dimethyl-2-(pyridin-2-yl)-1H-pyrrole-3-carboxamide], the CC50 at 7 days in data set [1] was above 30000 nM. Further, in the data set on HBV, the EC50 is above 1000 nM.
Taken in the same sequence, the figures for `Cc1cc(NC(=O)c2c(C)c(C(=O)C(=O)N[C@H]3[C@@H]4CC[C@@H](C4)[C@H]3CO)n(C)c2C)ccc1F` [Example 20, N-(4-fluoro-3-methylphenyl)-5-(2-(((1R,2S,3R,4S)-3-(hydroxymethyl)bicyclo[2.2.1]heptan-2-yl)amino)-2-oxoacetyl)-1,2,4-trimethyl-1H-pyrrole-3-carboxamide] were above 30000 nM and below 50 nM.
Taken in the same sequence, the figures for `CCC1(NC(=O)C(=O)c2c(C)c(C(=O)Nc3ccc(F)c(C)c3)c(C)n2C)CCN(C(C)=O)CC1` [Example 41, 5-(2-((1-acetyl-4-ethylpiperidin-4-yl)amino)-2-oxoacetyl)-N-(4-fluoro-3-methylphenyl)-1,2,4-trimethyl-1H-pyrrole-3-carboxamide] were above 30000 nM and below 50 nM.
In data set [1], `Cc1cc(NC(=O)c2c(C)c(C(=O)C(=O)N[C@]3(C)CC[C@H](O)CC3)n(C)c2CC2CC2)ccc1F` [Example 125, 2-(cyclopropylmethyl)-N-(4-fluoro-3-methylphenyl)-5-(2-(((1s,4s)-4-hydroxy-1-methylcyclohexyl)amino)-2-oxoacetyl)-1,4-dimethyl-1H-pyrrole-3-carboxamide] returned a CC50 at 7 days above 30000 nM. In the data set on HBV, the EC50 is below 50 nM.
On to `Cc1cc(NC(=O)c2c(C)c(C(=O)C(=O)N[C@]3(C)CC[C@H](O)CC3)n(C)c2-c2ccsc2)ccc1F` [Example 183, N-(4-fluoro-3-methylphenyl)-5-(2-(((1s,4s)-4-hydroxy-1-methylcyclohexyl)amino)-2-oxoacetyl)-1,4-dimethyl-2-(thiophen-3-yl)-1H-pyrrole-3-carboxamide], for which the 50% cytotoxic concentration (CC50) at 7 days in data set [1] is above 30000 nM. Further, in the data set with HBV, the 50% effective concentration (EC50) was 50 to 499 nM.
As for `Cc1c(C(=O)Nc2ccc(B(O)O)cc2)c(C)n(C)c1C(=O)C(=O)NC(C)(C)C` [Example 45, (4-(5-(2-(tert-butylamino)-2-oxoacetyl)-1,2,4-trimethyl-1H-pyrrole-3-carboxamido)phenyl)boronic acid], the CC50 at 7 days in data set [1] is above 30000 nM. Also, the EC50 with HBV lay within 500 to 1000 nM.
On the same counts, the results for `Cc1cc(NC(=O)c2c(C)c(C(=O)C(=O)NC3C[C@H]4C[C@@H]3CC4O)n(C)c2C)ccc1F` (stereo partly drawn) [Example 23, N-(4-fluoro-3-methylphenyl)-5-(2-(((1R,4R)-5-hydroxybicyclo[2.2.1]heptan-2-yl)amino)-2-oxoacetyl)-1,2,4-trimethyl-1H-pyrrole-3-carboxamide] are above 30000 nM and below 50 nM.
Compound `Cc1cc(NC(=O)c2c(C)c(C(=O)C(=O)N[C@H]3CCN(CC(=O)O)C3)n(C)c2C)ccc1F` [Example 28, (S)-2-(3-(2-(4-((4-fluoro-3-methylphenyl)carbamoyl)-1,3,5-trimethyl-1H-pyrrol-2-yl)-2-oxoacetamido)pyrrolidin-1-yl)acetic acid] showed a CC50 at 7 days in data set [1] above 30000 nM. Moreover, the concentration giving a half-maximal response (EC50) with HBV is above 1000 nM.
For `CC(=O)N1CC[C@H](NC(=O)C(=O)c2c(C)c(C(=O)Nc3ccc(F)c(C)c3)c(C)n2C)C[C@@H]1C` [Example 166, 5-(2-(((2S,4S)-1-acetyl-2-methylpiperidin-4-yl)amino)-2-oxoacetyl)-N-(4-fluoro-3-methylphenyl)-1,2,4-trimethyl-1H-pyrrole-3-carboxamide], the CC50 at 7 days in data set [1] is above 30000 nM. Moreover, in the data set on HBV, the EC50 fell in the range of 50 to 499 nM.
On the same counts, the results for `Cc1cc(NC(=O)c2c(C)c(C(=O)C(=O)NC3(C)CCN(C(=O)N4CCOCC4)CC3)n(C)c2C)ccc1F` [Example 36, N-(4-fluoro-3-methylphenyl)-1,2,4-trimethyl-5-(2-((4-methyl-1-(morpholine-4-carbonyl)piperidin-4-yl)amino)-2-oxoacetyl)-1H-pyrrole-3-carboxamide] are above 30000 nM and below 50 nM.
With `Cc1cc(NC(=O)c2c(C)c(C(=O)C(=O)N[C@]3(C)C[C@H](O)C3)n(C)c2-c2nccs2)ccc1F` [Example 174, N-(4-fluoro-3-methylphenyl)-5-(2-(((1s,3s)-3-hydroxy-1-methylcyclobutyl)amino)-2-oxoacetyl)-1,4-dimethyl-2-(thiazol-2-yl)-1H-pyrrole-3-carboxamide], the CC50 at 7 days in data set [1] was above 30000 nM. The EC50 with HBV was 500 to 1000 nM.
On the same counts, the results for `Cc1cc(NC(=O)c2c(C)c(C(=O)C(=O)NC3(CC(=O)O)CCCNC3)n(C)c2C)ccc1F` (stereo not shown) [Example 146, 2-(3-(2-(4-((4-fluoro-3-methylphenyl)carbamoyl)-1,3,5-trimethyl-1H-pyrrol-2-yl)-2-oxoacetamido)piperidin-3-yl)acetic acid] are above 30000 nM and above 1000 nM.
In the case of `Cc1cc(NC(=O)c2c(C)c(C(=O)C(=O)N[C@]3(C)CC[C@H](O)CC3)n(C)c2C2CCCC2)ccc1F` [Example 133, 2-cyclopentyl-N-(4-fluoro-3-methylphenyl)-5-(2-(((1s,4s)-4-hydroxy-1-methylcyclohexyl)amino)-2-oxoacetyl)-1,4-dimethyl-1H-pyrrole-3-carboxamide], the CC50 at 7 days in data set [1] was above 30000 nM. Also, the half-maximal effective concentration (EC50) in the data set with HBV was below 50 nM.
As for `Cc1cc(NC(=O)c2c(C(C)C)c(C(=O)C(=O)N[C@H]3CC[C@@H](O)CC3)n(C)c2C)ccc1F` [Example 92, N-(4-fluoro-3-methylphenyl)-5-(2-(((1s,4s)-4-hydroxycyclohexyl)amino)-2-oxoacetyl)-4-isopropyl-1,2-dimethyl-1H-pyrrole-3-carboxamide], the CC50 at 7 days in data set [1] was above 30000 nM. For the same compound, in the data set with HBV, the concentration giving a half-maximal response (EC50) lay within 50 to 499 nM.
Compound `Cc1cc(NC(=O)c2c(C)c(C(=O)C(=O)N[C@H]3CC[C@@H](S(C)(=O)=O)CC3)n(C)c2C(C)C)ccc1F` [Example 110, N-(4-fluoro-3-methylphenyl)-2-isopropyl-1,4-dimethyl-5-(2-(((1s,4s)-4-(methylsulfonyl)cyclohexyl)amino)-2-oxoacetyl)-1H-pyrrole-3-carboxamide] gave a cytotoxic concentration (CC50) at 7 days in data set [1] above 30000 nM. Moreover, in the data set on HBV, the concentration giving a half-maximal response (EC50) was 500 to 1000 nM.
Taken in the same sequence, the figures for `Cc1c(C(=O)Nc2cc(Cl)nc(Cl)c2)c(C)n(C)c1C(=O)C(=O)N[C@H]1CC[C@@H](O)CC1` [Example 2, N-(2,6-dichloropyridin-4-yl)-5-(2-(((1s,4s)-4-hydroxycyclohexyl)amino)-2-oxoacetyl)-1,2,4-trimethyl-1H-pyrrole-3-carboxamide] were above 30000 nM and below 50 nM.
Taken in the same sequence, the figures for `Cc1cc(NC(=O)c2c(C)c(C(=O)C(=O)NCC(C)(C)O)n(C)c2C2CC2)ccc1F` [Example 130, 2-cyclopropyl-N-(4-fluoro-3-methylphenyl)-5-(2-((2-hydroxy-2-methylpropyl)amino)-2-oxoacetyl)-1,4-dimethyl-1H-pyrrole-3-carboxamide] were 5000 to 30000 nM and below 50 nM.
On the same counts, the results for `Cc1cc(NC(=O)c2c(C)c(C(=O)C(=O)N[C@]3(C)CC[C@H](O)CC3)n(C)c2-c2ccccn2)ccc1F` [Example 157, N-(4-fluoro-3-methylphenyl)-5-(2-(((1s,4s)-4-hydroxy-1-methylcyclohexyl)amino)-2-oxoacetyl)-1,4-dimethyl-2-(pyridin-2-yl)-1H-pyrrole-3-carboxamide] are above 30000 nM and 50 to 499 nM.
In data set [1], `Cc1cc(NC(=O)c2c(C)c(C(=O)C(=O)N[C@H]3CCCC(F)(F)[C@@H]3O)n(C)c2C)ccc1F` [Example 13, 5-(2-(((1S,2R)-3,3-difluoro-2-hydroxycyclohexyl)amino)-2-oxoacetyl)-N-(4-fluoro-3-methylphenyl)-1,2,4-trimethyl-1H-pyrrole-3-carboxamide] came in with a CC50 at 7 days above 30000 nM. Besides, the half-maximal effective concentration (EC50) in the data set on HBV is below 50 nM.
On the same counts, the results for `Cc1cc(NC(=O)c2c(C)c(C(=O)C(=O)N[C@]3(C)CC[C@H](O)CC3)n(C)c2-c2ccncc2)ccc1F` [Example 162, N-(4-fluoro-3-methylphenyl)-5-(2-(((1s,4s)-4-hydroxy-1-methylcyclohexyl)amino)-2-oxoacetyl)-1,4-dimethyl-2-(pyridin-4-yl)-1H-pyrrole-3-carboxamide] are above 30000 nM and above 1000 nM.
